From the supplement of paper PMC10307832

compound: COc1nc(N)nc2c1ncn2[C@@H]1O[C@H](CO)[C@@H](O)[C@@H]1O [Nelarabine] + Nc1nc2[nH]cc(CCc3ccc(C(=O)N[C@@H](CCC(=O)O)C(=O)O)cc3)c2c(=O)[nH]1 [Pemetrexed] (partner 0.2 µM); assay: relative viability (nuclei count vs DMSO), 5 days (fraction); higher = more cells survive; settings: first compound 0.01 µM
Summary of the method: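 After 5 days of treatment, lung cancer cells in 1536-well plates were fixed and stained in a single step (final 0.05% Triton X-100, 1% formaldehyde, 1 ug/ml Hoechst) and their nuclei counted on 4× images. Treatment had been applied by pin tool the day after seeding as one drug alone or as a fixed anchor-drug dose with five library-drug doses (not always all listed) in √10 steps. Relative viability is the nuclei count of treated wells divided by that of vehicle wells, and values are medians of duplicate plates.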

| Cell Line | relative viability |
| --- | --- |
| CAL-12T | 1.55 |
| COR-L23 | 0.205 |
| COR-L 105 | 1.11 |
| ChaGo-K-1 | 0.242 |
| EKVX | 0.431 |
| EPLC-272H | 0.3 |
| H3255 | 0.531 |
| HARA | 0.233 |
| HCC-15 | 0.233 |
| HCC-44 | 0.642 |
| HCC-78 | 0.879 |
| HCC-366 | 0.204 |
| HCC-827 | 0.231 |
| HOP-62 | 0.412 |
| LC-2-ad | 0.304 |
| LCLC-103H | 0.467 |
| LK-2 | 0.191 |
| LOU-NH91 | 0.385 |
| LU99A | 0.197 |
| LXF-289 | 1 |
| NCI-H358 | 0.181 |
| NCI-H522 | 1.1 |
| NCI-H650 | 0.986 |
| NCI-H661 | 0.963 |
| NCI-H1563 | 0.765 |
| NCI-H1792 | 1.09 |
| NCI-H2342 | 0.901 |
| SW 900 | 0.53 |

same assay, conditions: first compound 0.03162 µM

| Cell Line | relative viability |
| --- | --- |
| 201T | 0.279 |
| A-427 | 1.05 |
| BEN | 0.822 |
| CAL-12T | 1.19 |
| COR-L23 | 0.194 |
| COR-L 105 | 1.26 |
| ChaGo-K-1 | 0.249 |
| EKVX | 0.436 |
| EPLC-272H | 0.288 |
| H3255 | 0.571 |
| HARA | 0.28 |
| HCC-15 | 0.242 |
| HCC-44 | 0.662 |
| HCC-78 | 0.925 |
| HCC-366 | 0.146 |
| HCC-827 | 0.235 |

| Cell Line | relative viability |
| --- | --- |
| HOP-62 | 0.347 |
| LC-2-ad | 0.249 |
| LCLC-103H | 0.447 |
| LOU-NH91 | 0.35 |
| LU99A | 0.154 |
| LXF-289 | 0.833 |
| NCI-H358 | 0.227 |
| NCI-H522 | 0.923 |
| NCI-H650 | 0.814 |
| NCI-H661 | 1.07 |
| NCI-H1563 | 0.811 |
| NCI-H1648 | 0.805 |
| NCI-H1792 | 0.658 |
| NCI-H2342 | 0.659 |
| SW 900 | 0.538 |

same assay, conditions: first compound 0.1 µM

| Cell Line | relative viability |
| --- | --- |
| 201T | 0.349 |
| A-427 | 1.11 |
| BEN | 0.765 |
| CAL-12T | 1.42 |
| COR-L23 | 0.193 |
| COR-L 105 | 1.16 |
| ChaGo-K-1 | 0.261 |
| EKVX | 0.417 |
| EPLC-272H | 0.308 |
| H3255 | 0.557 |
| HARA | 0.225 |
| HCC-15 | 0.218 |
| HCC-44 | 0.646 |
| HCC-366 | 0.202 |
| HCC-827 | 0.27 |
| HOP-62 | 0.307 |

| Cell Line | relative viability |
| --- | --- |
| LC-2-ad | 0.267 |
| LCLC-97TM1 | 0.153 |
| LCLC-103H | 0.464 |
| LK-2 | 0.26 |
| LOU-NH91 | 0.442 |
| LU99A | 0.173 |
| LXF-289 | 0.866 |
| NCI-H358 | 0.161 |
| NCI-H522 | 1.03 |
| NCI-H650 | 0.913 |
| NCI-H661 | 0.865 |
| NCI-H1563 | 0.77 |
| NCI-H1792 | 1.58 |
| NCI-H2342 | 0.681 |
| SW 900 | 0.482 |

same assay, conditions: first compound 0.3162 µM

| Cell Line | relative viability |
| --- | --- |
| 201T | 0.417 |
| A-427 | 0.984 |
| BEN | 0.837 |
| CAL-12T | 1.2 |
| COR-L23 | 0.184 |
| COR-L 105 | 1.15 |
| ChaGo-K-1 | 0.258 |
| EKVX | 0.506 |
| EPLC-272H | 0.289 |
| H3255 | 0.551 |
| HARA | 0.288 |
| HCC-15 | 0.212 |
| HCC-44 | 0.69 |
| HCC-78 | 0.953 |
| HCC-366 | 0.225 |
| HCC-827 | 0.287 |
| HOP-62 | 0.318 |

| Cell Line | relative viability |
| --- | --- |
| LC-2-ad | 0.286 |
| LCLC-97TM1 | 0.2 |
| LCLC-103H | 0.446 |
| LK-2 | 0.273 |
| LOU-NH91 | 0.329 |
| LU99A | 0.192 |
| LXF-289 | 0.973 |
| NCI-H358 | 0.172 |
| NCI-H522 | 0.999 |
| NCI-H650 | 0.971 |
| NCI-H661 | 0.899 |
| NCI-H1563 | 0.812 |
| NCI-H1648 | 0.885 |
| NCI-H1792 | 0.937 |
| NCI-H2342 | 0.817 |
| SW 900 | 0.526 |

same assay, conditions: first compound 1 µM

| Cell Line | relative viability |
| --- | --- |
| 201T | 0.444 |
| A-427 | 0.838 |
| BEN | 0.752 |
| CAL-12T | 1.22 |
| COR-L23 | 0.203 |
| COR-L 105 | 1.08 |
| ChaGo-K-1 | 0.252 |
| EKVX | 0.46 |
| EPLC-272H | 0.378 |
| H3255 | 0.571 |
| HARA | 0.226 |
| HCC-15 | 0.217 |
| HCC-44 | 0.633 |
| HCC-78 | 0.886 |
| HCC-366 | 0.22 |
| HCC-827 | 0.231 |

| Cell Line | relative viability |
| --- | --- |
| HOP-62 | 0.33 |
| LC-2-ad | 0.275 |
| LCLC-97TM1 | 0.169 |
| LCLC-103H | 0.478 |
| LK-2 | 0.294 |
| LOU-NH91 | 0.381 |
| LU99A | 0.223 |
| LXF-289 | 0.906 |
| NCI-H358 | 0.328 |
| NCI-H522 | 1.11 |
| NCI-H650 | 1.02 |
| NCI-H661 | 0.899 |
| NCI-H1563 | 0.787 |
| NCI-H1648 | 0.75 |
| NCI-H1792 | 0.824 |
| NCI-H2342 | 0.801 |
